{"source": "patent US20140011781A1", "about": "“METHOD FOR TREATING OR […] USING TESTIS EXTRACT AS ACTIVE INGREDIENT” (Industry-Academic Cooperation Foundation, Yeungnam …, priority 2009, published 2014)", "format_in_all_cases": "in vivo, CD-1 mouse", "key": {"reproductive period": {"system": "reproductive period", "experiment": "Analysis of reproductive period change by vaginal smearing", "details": "during 21 days of subcutaneous injection, female CD-1 mice; nandrolone 3 mg/kg BW; compared with sesame oil control", "experimental": "(§1) Next, the pig testis extracts M1 and M2 were dissolved with first solvent of 100% ethanol, and then sesame oil was added to prepare at a concentration of 1 g/ml. 100% was defined as 100-fold diluted one with the sesame oil, and then the sample was used by diluting to be a concentration of 0.1%, 1%, 10% or 50%. Each concentration (0.1%, 1%, 10%, 50% or 100%) of the pig testis extract was subcutaneously injected to CD-1 mouse of 6 to 8-week raised under physiological condition for 21 days (6 mice per each group).\nAs mentioned above, each concentration of the pig testis extract was subcutaneously injected to 6-health CD-1 female mice raised under physiological condition for 21 days. Vaginal smearing was performed to analyze reproductive period change during an injection. As a control group, the mice injected with only sesame oil and the mice injected with only 19-nortestosterone (3 mg/kg BW) were used to analyze the effects. At 21 days after treating, the mice were anesthetized with sodium pentobarbital and then their peripheral bloods were collected. And immediately, the mice were sacrificed by a luxation of the cervical vertebral, and a femur for obtaining bone marrow and liver tissue, ovary, and uterus for analyzing cytotoxicity were removed. Some of them were fixed for a histological analysis and some of them were stored at a deep-freezer of −80° C. […]"}, "[1]": {"system": "red blood cell in peripheral blood", "experiment": "Numerical change of RBC in peripheral blood", "details": "0.1% extract or nandrolone injected to mice", "experimental": "as §1\nPeripheral bloods were obtained after treating each of 0.1% pig testis extracts M1 and M2 under the same condition as the above Experimental Example. Since then, the number of RBC (Red Blood Cell) was counted by using an analyzer."}, "[2]": {"system": "CD34 hematopoietic stem cells in bone marrow", "experiment": "Numerical change of CD34-marked hematopoietic stem cell using FACS", "details": "0.1% extract or nandrolone injected to mice, femur bone marrow", "experimental": "as §1\nIn the Experimental Example, CD34, which is a marker for hematopoietic stem cell, was used in order to confirm whether a pig testis extract stimulates proliferation of hematopoietic stem cells, or not. Each of 0.1% pig testis extracts M1 and M2 was injected to the mice as the above Experimental Example; then the mice were scarified; their femurs were collected; and then bone marrows were extracted by using PBS solution.\nSince then, after reacting with CD34 specific antibody, CD34 hematopoietic stem cells were counted for the analysis by using a fluorescent activated cell sorter."}}}
{"smiles": "C[C@]12CC[C@H]3[C@@H](CCC4=CC(=O)CC[C@@H]43)[C@@H]1CC[C@@H]2O", "note": "[nandrolone]", "values": [{"measurement": "progress of reproductive period (vaginal smearing)", "setting": "reproductive period", "result": "gradually irregular"}, {"measurement": "number of RBC in peripheral blood compared with control group", "setting": "[1]", "result": "significantly increased"}, {"measurement": "number of CD34 hematopoietic stem cell in bone marrow", "setting": "[2]", "result": "significantly increased"}]}
